# Data as given in ChEMBL document CHEMBL1201862, “PubChem BioAssay data set” (2004).
#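 A five-concentration, 48-hour dose response in 96-well plates underlies each endpoint, interpolated linearly between surrounding concentrations. GI50 is the concentration that inhibits growth by half.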 Calls of active or inactive are those of the source. Rule as the data show it: active = GI50 up to about 1.1 µM and inactive = higher.
# How the values were obtained:
# Experiment in all cases: growth of human tumour cells (NCI), 48 h
# UACC-62 = test system: UACC-62
# SF-268 = test system: SF-268
# OVCAR-4 = test system: OVCAR-4
# HOP-92 = test system: HOP-92
# IGROV-1 = test system: IGROV-1
# COLO 205 = test system: COLO 205
# KM12 = test system: KM12
# NCI-H226 = test system: NCI-H226
# Malme-3M = test system: Malme-3M
# SK-MEL-5 = test system: SK-MEL-5
# CCRF-CEM = test system: CCRF-CEM
# U-251 = test system: U-251
# RXF 393 = test system: RXF 393
# CAKI-1 = test system: CAKI-1
# HL-60 = test system: HL-60
# HCT-15 = test system: HCT-15
# HOP-62 = test system: HOP-62
# MOLT-4 = test system: MOLT-4
# HT-29 = test system: HT-29
# SNB-19 = test system: SNB-19
SMILES,GI50 (UACC-62),GI50 (SF-268),GI50 (OVCAR-4),GI50 (HOP-92),GI50 (IGROV-1),GI50 (COLO 205),GI50 (KM12),GI50 (NCI-H226),GI50 (Malme-3M),GI50 (SK-MEL-5),GI50 (CCRF-CEM),GI50 (U-251),GI50 (RXF 393),GI50 (CAKI-1),GI50 (HL-60),GI50 (HCT-15) [µM],GI50 (HOP-62),GI50 (MOLT-4),GI50 (HT-29),GI50 (SNB-19)
O=NN(CCCl)C(=O)NC1CCSc2ccccc21 (stereo not given),25 µM (inactive),20.9 µM (inactive),> 100 µM (inactive),> 100 µM (inactive),> 100 µM (inactive),> 100 µM (inactive),> 100 µM (inactive),> 100 µM (inactive),> 100 µM (inactive),> 100 µM (inactive),10.3 µM (inactive),58.2 µM (inactive),> 100 µM (inactive),> 100 µM (inactive),23.3 µM (inactive),> 100,0.776 µM (active),35.1 µM (inactive),> 100 µM (inactive),> 90.2 µM (inactive)
Cc1c2ccnc(-c3ccccc3)c2cc2c1[nH]c1ccccc12,1.09 µM (active),4.31 µM (inactive),2.56 µM (inactive),1.25 µM (inactive),2.63 µM (inactive),0.735 µM (active),1.45 µM (inactive),2.64 µM (inactive),3.37 µM (inactive),0.614 µM (active),3.26 µM (inactive),0.873 µM (active),2.42 µM (inactive),0.655 µM (active),2.09 µM (inactive),0.773,2.6 µM (inactive),2.75 µM (inactive),0.887 µM (active),3.66 µM (inactive)
[N-]=[N+]=CC(=O)OCC(N)C(=O)O (stereo not given),1.19 µM (inactive),0.685 µM (active),14.1 µM (inactive),82 µM (inactive),1.15 µM (inactive),0.269 µM (active),0.406 µM (active),625 µM (inactive),54.8 µM (inactive),0.847 µM (active),0.222 µM (active),0.502 µM (active),15.7 µM (inactive),5.85 µM (inactive),0.448 µM (active),0.297,0.582 µM (active),0.216 µM (active),0.177 µM (active),2.88 µM (inactive)
COC1=CC(=O)c2ccccc2C1(C)C1=NC(C)(C)CO1 (stereo not given),> 100 µM (inactive),> 100 µM (inactive),> 100 µM (inactive),> 100 µM (inactive),> 100 µM (inactive),> 100 µM (inactive),> 100 µM (inactive),> 100 µM (inactive),> 100 µM (inactive),> 100 µM (inactive),> 100 µM (inactive),> 100 µM (inactive),> 100 µM (inactive),> 100 µM (inactive),> 100 µM (inactive),> 100,> 100 µM (inactive),> 100 µM (inactive),> 100 µM (inactive),> 100 µM (inactive)
O=C(CCC(=O)Nc1ccccc1C(F)(F)F)N/N=C1\C(=N\NC(=O)CCC(=O)Nc2ccccc2C(F)(F)F)C(c2ccc3c(c2)OCO3)Oc2ccccc21 (stereo not given),5.46 µM (inactive),3.01 µM (inactive),9.95 µM (inactive),17.9 µM (inactive),16.9 µM (inactive),> 100 µM (inactive),26.2 µM (inactive),10.6 µM (inactive),> 100 µM (inactive),7.74 µM (inactive),4.26 µM (inactive),4.97 µM (inactive),11.8 µM (inactive),10.1 µM (inactive),3.4 µM (inactive),5.33,4.28 µM (inactive),3.01 µM (inactive),35.9 µM (inactive),13.2 µM (inactive)
CCCC(=O)Nc1cc(/C=C/C(=O)N2CC(CCl)c3c2cc(OCc2ccccc2)c2[nH]cc(C)c32)n(C)c1 (stereo not given),0.027 µM (active),0.0226 µM (active),0.069 µM (active),0.0698 µM (active),0.0211 µM (active),0.188 µM (active),0.102 µM (active),0.107 µM (active),0.0916 µM (active),0.02 µM (active),0.0101 µM (active),0.0513 µM (active),0.0383 µM (active),0.0295 µM (active),0.0259 µM (active),0.106,0.0491 µM (active),0.00855 µM (active),0.0687 µM (active),0.337 µM (active)
CCCCCCCCCCC(C)CCCCCCC(=O)O (stereo not given),> 100 µM (inactive),> 100 µM (inactive),> 100 µM (inactive),> 100 µM (inactive),> 100 µM (inactive),> 100 µM (inactive),> 100 µM (inactive),> 100 µM (inactive),> 100 µM (inactive),> 100 µM (inactive),> 100 µM (inactive),> 100 µM (inactive),> 100 µM (inactive),> 100 µM (inactive),> 100 µM (inactive),> 100,> 100 µM (inactive),> 100 µM (inactive),> 100 µM (inactive),> 100 µM (inactive)
COc1ccc(C23C(=O)c4ccccc4N2O[C@H]2C(=O)N(c4ccccc4)C(=O)[C@H]23)cc1 (stereo not given in full),> 100 µM (inactive),> 100 µM (inactive),> 100 µM (inactive),> 100 µM (inactive),> 100 µM (inactive),> 100 µM (inactive),> 100 µM (inactive),> 100 µM (inactive),> 100 µM (inactive),> 100 µM (inactive),> 100 µM (inactive),> 100 µM (inactive),> 100 µM (inactive),> 100 µM (inactive),> 100 µM (inactive),> 100,> 100 µM (inactive),> 100 µM (inactive),> 100 µM (inactive),> 100 µM (inactive)
C=C1C(=O)C[C@@]23CCC[C@@]12CC(O)C3 (stereo not given in full),13.6 µM (inactive),43.7 µM (inactive),18.6 µM (inactive),19.3 µM (inactive),3.93 µM (inactive),21.3 µM (inactive),20.8 µM (inactive),21.2 µM (inactive),0.855 µM (active),10.5 µM (inactive),10.3 µM (inactive),40.3 µM (inactive),13.7 µM (inactive),> 10 µM (inactive),19.5 µM (inactive),13,> 63 µM (inactive),23.4 µM (inactive),14.6 µM (inactive),85.7 µM (inactive)
CCOC(=O)c1ccc(N[C@@H]2c3cc4c(cc3C(c3cc(OC)c(O)c(OC)c3)[C@H]3C(=O)OCC32)OCO4)cc1O (stereo not given in full),0.469 µM (active),0.789 µM (active),7.69 µM (inactive),1.19 µM (inactive),2.68 µM (inactive),1.18 µM (inactive),0.579 µM (active),0.256 µM (active),0.757 µM (active),1.19 µM (inactive),0.211 µM (active),0.92 µM (active),1.88 µM (inactive),0.331 µM (active),0.133 µM (active),1.09,0.306 µM (active),0.0207 µM (active),0.546 µM (active),0.652 µM (active)
Nc1ncnc2c1ncn2[C@@H]1O[C@H](COP(=O)(O)O)[C@@H](O)[C@@H]1O,> 50 µM (inactive),> 50 µM (inactive),> 50 µM (inactive),> 31.3 µM (inactive),> 50 µM (inactive),> 50 µM (inactive),> 50 µM (inactive),> 50 µM (inactive),> 50 µM (inactive),> 50 µM (inactive),> 50 µM (inactive),> 50 µM (inactive),> 50 µM (inactive),> 50 µM (inactive),14.6 µM (inactive),> 50,> 50 µM (inactive),> 38.8 µM (inactive),> 50 µM (inactive),> 50 µM (inactive)
